Legend:
Experiment in all cases: scanMAX Kinase panel (DiscoverX)
Assay type in all cases: binding
BLK = biological target: T1, BLK (Homo sapiens, UniProt P51451); details: read-out: % Cont @ 1 uM
T1 construct: purchased DiscoverX scanMAX Kinase panel
Procedure, shortened: (§1)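 % ctrl @ 1 μM (DMSO stock vehicle); normalisation: positive control set to 0, negative control to 100.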

IKK-beta = biological target: T2, IKK-beta (Homo sapiens, UniProt O14920); details: read-out: % Cont @ 1 uM
T2 construct: purchased DiscoverX scanMAX Kinase panel
Procedure, shortened: as §1

KIT(V559D, T670I) = biological target: T3, KIT(V559D, T670I) (Homo sapiens, UniProt P10721, T670I/V559D); details: read-out: % Cont @ 1 uM
T3 construct: purchased DiscoverX scanMAX Kinase panel
Procedure, shortened: as §1

CSF1R = biological target: T4, CSF1R (Homo sapiens, UniProt P07333); details: read-out: % Cont @ 1 uM
T4 construct: purchased DiscoverX scanMAX Kinase panel
Procedure, shortened: as §1

NEK1 = biological target: T5, NEK1 (Homo sapiens, UniProt Q96PY6); details: read-out: % Cont @ 1 uM
T5 construct: purchased DiscoverX scanMAX Kinase panel
Procedure, shortened: as §1

MKNK1 = biological target: T6, MKNK1 (Homo sapiens, UniProt Q9BUB5); details: read-out: % Cont @ 1 uM
T6 construct: purchased DiscoverX scanMAX Kinase panel
Procedure, shortened: as §1

TNIK = biological target: T7, TNIK (Homo sapiens, UniProt Q9UKE5); details: read-out: % Cont @ 1 uM
T7 construct: purchased DiscoverX scanMAX Kinase panel
T7 sequence (Q9UKE5 whole entry): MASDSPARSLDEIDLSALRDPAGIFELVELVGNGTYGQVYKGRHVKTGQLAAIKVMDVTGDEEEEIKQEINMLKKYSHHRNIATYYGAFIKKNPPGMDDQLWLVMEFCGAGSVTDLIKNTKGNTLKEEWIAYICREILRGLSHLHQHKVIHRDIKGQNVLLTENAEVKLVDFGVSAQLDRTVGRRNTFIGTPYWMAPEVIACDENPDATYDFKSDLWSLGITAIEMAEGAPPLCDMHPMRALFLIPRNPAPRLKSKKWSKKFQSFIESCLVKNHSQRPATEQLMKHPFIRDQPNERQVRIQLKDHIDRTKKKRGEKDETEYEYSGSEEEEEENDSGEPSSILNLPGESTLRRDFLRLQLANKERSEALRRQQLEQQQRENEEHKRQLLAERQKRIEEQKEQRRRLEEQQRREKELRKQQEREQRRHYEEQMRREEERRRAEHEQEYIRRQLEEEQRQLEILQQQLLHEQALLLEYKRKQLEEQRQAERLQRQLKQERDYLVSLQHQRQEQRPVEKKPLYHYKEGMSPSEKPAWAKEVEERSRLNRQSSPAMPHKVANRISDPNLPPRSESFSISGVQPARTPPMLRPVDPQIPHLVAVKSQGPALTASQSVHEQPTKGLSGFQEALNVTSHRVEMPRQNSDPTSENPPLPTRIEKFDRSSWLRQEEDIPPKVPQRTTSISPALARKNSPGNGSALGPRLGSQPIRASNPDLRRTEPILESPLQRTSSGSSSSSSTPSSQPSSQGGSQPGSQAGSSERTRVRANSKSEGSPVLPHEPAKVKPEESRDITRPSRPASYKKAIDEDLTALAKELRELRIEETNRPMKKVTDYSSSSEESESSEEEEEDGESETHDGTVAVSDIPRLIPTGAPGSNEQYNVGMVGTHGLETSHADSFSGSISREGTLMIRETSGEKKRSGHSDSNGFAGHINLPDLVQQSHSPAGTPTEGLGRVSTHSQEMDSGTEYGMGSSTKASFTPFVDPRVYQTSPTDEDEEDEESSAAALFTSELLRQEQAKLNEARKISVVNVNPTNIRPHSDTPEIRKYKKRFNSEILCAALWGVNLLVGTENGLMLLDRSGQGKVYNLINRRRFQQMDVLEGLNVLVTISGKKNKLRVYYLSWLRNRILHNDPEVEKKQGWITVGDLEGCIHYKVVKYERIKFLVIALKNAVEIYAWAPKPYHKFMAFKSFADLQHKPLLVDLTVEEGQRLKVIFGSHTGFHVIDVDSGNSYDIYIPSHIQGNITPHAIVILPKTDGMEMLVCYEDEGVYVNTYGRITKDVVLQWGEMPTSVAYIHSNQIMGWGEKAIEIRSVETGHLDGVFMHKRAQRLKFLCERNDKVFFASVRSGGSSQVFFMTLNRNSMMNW
Procedure, shortened: as §1

[1] = biological target: T8, ABL1(Q252H)-nonphosphorylated (Homo sapiens, UniProt P00519, Q252H); details: read-out: % Cont @ 1 uM
T8 construct: purchased DiscoverX
Procedure, shortened: as §1

[2] = biological target: T9, ABL1(F317I)-phosphorylated (Homo sapiens, UniProt P00519, F317I); details: read-out: % Cont @ 1 uM
T9 construct: purchased DiscoverX
Procedure, shortened: as §1

NEK4 = biological target: T10, NEK4 (Homo sapiens, UniProt P51957); details: read-out: % Cont @ 1 uM
T10 construct: purchased DiscoverX scanMAX Kinase panel
Procedure, shortened: as §1

[3] = biological target: T11, ABL1(F317L)-nonphosphorylated (Homo sapiens, UniProt P00519, F317L); details: read-out: % Cont @ 1 uM
T11 construct: purchased DiscoverX
Procedure, shortened: as §1

MAP3K2 = biological target: T12, MAP3K2 (Homo sapiens, UniProt Q9Y2U5); details: read-out: % Cont @ 1 uM
T12 construct: purchased DiscoverX scanMAX Kinase panel
Procedure, shortened: as §1

TAOK2 = biological target: T13, TAOK2 (Homo sapiens, UniProt Q9UL54); details: read-out: % Cont @ 1 uM
T13 construct: purchased DiscoverX scanMAX Kinase panel
Procedure, shortened: as §1

BRAF(V600E) = biological target: T14, BRAF(V600E) (Homo sapiens, UniProt P15056, V600E); details: read-out: % Cont @ 1 uM
T14 construct: purchased DiscoverX scanMAX Kinase panel
Procedure, shortened: as §1

TXK = biological target: T15, TXK (Homo sapiens, UniProt P42681); details: read-out: % Cont @ 1 uM
T15 construct: purchased DiscoverX scanMAX Kinase panel
Procedure, shortened: as §1

FLT3(R834Q) = biological target: T16, FLT3(R834Q) (Homo sapiens, UniProt P36888, R834Q); details: read-out: % Cont @ 1 uM
T16 construct: purchased DiscoverX scanMAX Kinase panel
Procedure, shortened: as §1

p38-alpha = biological target: T17, p38-alpha (Homo sapiens, UniProt Q16539)
T17 construct: purchased DiscoverX scanMAX Kinase panel
Procedure, shortened: as §1

ABL2 = biological target: T18, ABL2 (Homo sapiens, UniProt P42684); details: read-out: % Cont @ 1 uM
T18 construct: purchased DiscoverX scanMAX Kinase panel
Procedure, shortened: as §1

EPHB1 = biological target: T19, EPHB1 (Homo sapiens, UniProt P54762); details: read-out: % Cont @ 1 uM
T19 construct: purchased DiscoverX scanMAX Kinase panel
Procedure, shortened: as §1

KIT(V559D, V654A) = biological target: T20, KIT(V559D, V654A) (Homo sapiens, UniProt P10721, V559D/V654A); details: read-out: % Cont @ 1 uM
T20 construct: purchased DiscoverX scanMAX Kinase panel
Procedure, shortened: as §1

FLT3(D835Y) = biological target: T21, FLT3(D835Y) (Homo sapiens, UniProt P36888, D835Y); details: read-out: % Cont @ 1 uM
T21 construct: purchased DiscoverX scanMAX Kinase panel
Procedure, shortened: as §1

ZAK = biological target: T22, ZAK (Homo sapiens, UniProt Q9NYL2); details: read-out: % Cont @ 1 uM
T22 construct: purchased DiscoverX scanMAX Kinase panel
Procedure, shortened: as §1

MUSK = biological target: T23, MUSK (Homo sapiens, UniProt O15146); details: read-out: % Cont @ 1 uM
T23 construct: purchased DiscoverX scanMAX Kinase panel
T23 sequence (O15146 24-869): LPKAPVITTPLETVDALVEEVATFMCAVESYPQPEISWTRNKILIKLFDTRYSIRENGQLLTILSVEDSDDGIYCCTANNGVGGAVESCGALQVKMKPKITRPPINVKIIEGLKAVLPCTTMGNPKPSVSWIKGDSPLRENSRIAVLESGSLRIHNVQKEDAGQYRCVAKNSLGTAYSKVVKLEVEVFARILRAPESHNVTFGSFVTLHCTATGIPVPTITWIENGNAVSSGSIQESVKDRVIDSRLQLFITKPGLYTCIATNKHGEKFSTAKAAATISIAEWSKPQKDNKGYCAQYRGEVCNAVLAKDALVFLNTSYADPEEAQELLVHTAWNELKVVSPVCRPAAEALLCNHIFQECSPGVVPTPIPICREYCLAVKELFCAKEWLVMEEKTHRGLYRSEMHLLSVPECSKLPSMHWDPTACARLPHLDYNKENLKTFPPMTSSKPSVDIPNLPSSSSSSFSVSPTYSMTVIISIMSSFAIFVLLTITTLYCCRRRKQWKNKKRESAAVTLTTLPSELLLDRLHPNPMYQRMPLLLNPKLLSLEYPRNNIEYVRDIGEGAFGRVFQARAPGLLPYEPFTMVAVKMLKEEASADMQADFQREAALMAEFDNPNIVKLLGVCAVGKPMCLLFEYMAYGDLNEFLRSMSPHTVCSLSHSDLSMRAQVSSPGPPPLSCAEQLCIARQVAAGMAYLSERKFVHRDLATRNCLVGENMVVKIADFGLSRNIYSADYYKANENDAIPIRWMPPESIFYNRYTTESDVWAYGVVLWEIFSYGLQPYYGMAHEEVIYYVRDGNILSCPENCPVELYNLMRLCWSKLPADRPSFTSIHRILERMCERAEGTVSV
Procedure, shortened: as §1

EGFR(E746-A750del) = biological target: T24, EGFR(E746-A750del) (Homo sapiens, UniProt P00533, DEL746-750)
T24 construct: purchased DiscoverX scanMAX Kinase panel
Procedure, shortened: as §1

MAP3K3 = biological target: T25, MAP3K3 (Homo sapiens, UniProt Q99759); details: read-out: % Cont @ 1 uM
T25 construct: purchased DiscoverX scanMAX Kinase panel
T25 sequence (Q99759 whole entry): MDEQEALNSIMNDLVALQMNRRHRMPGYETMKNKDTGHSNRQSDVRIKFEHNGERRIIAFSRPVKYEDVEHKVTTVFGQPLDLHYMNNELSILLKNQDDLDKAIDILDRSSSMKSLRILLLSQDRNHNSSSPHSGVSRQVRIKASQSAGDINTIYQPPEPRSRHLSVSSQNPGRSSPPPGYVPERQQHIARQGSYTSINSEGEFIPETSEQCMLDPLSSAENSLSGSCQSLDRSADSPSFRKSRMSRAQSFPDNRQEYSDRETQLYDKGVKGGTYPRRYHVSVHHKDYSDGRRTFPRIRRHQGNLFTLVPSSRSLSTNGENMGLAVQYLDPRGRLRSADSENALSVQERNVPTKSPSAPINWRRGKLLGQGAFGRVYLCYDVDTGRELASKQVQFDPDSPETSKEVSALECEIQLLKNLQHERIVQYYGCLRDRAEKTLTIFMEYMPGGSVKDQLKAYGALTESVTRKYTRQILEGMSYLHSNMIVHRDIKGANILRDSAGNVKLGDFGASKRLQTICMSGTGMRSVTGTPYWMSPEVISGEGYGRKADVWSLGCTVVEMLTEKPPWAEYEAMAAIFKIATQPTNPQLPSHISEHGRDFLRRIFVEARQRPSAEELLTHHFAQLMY
Procedure, shortened: as §1

AURKC = biological target: T26, AURKC (Homo sapiens, UniProt Q9UQB9); details: read-out: % Cont @ 1 uM
T26 construct: purchased DiscoverX scanMAX Kinase panel
T26 sequence (Q9UQB9 whole entry): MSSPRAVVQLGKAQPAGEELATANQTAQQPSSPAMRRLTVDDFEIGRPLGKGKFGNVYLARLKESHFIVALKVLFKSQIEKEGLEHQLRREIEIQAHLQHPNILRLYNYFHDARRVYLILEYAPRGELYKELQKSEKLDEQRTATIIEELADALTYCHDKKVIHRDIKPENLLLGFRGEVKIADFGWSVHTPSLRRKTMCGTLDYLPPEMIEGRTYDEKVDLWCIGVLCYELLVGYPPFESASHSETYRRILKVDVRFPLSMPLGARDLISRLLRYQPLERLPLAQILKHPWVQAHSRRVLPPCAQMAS
Procedure, shortened: as §1

EPHB2 = biological target: T27, EPHB2 (Homo sapiens, UniProt P29323)
T27 construct: purchased DiscoverX scanMAX Kinase panel
Procedure, shortened: as §1

[4] = biological target: T28, ABL1(Y253F)-phosphorylated (Homo sapiens, UniProt P00519, Y253F); details: read-out: % Cont @ 1 uM
T28 construct: purchased DiscoverX scanMAX Kinase panel
Procedure, shortened: as §1

[5] = biological target: T29, ABL1(T315I)-phosphorylated (Homo sapiens, UniProt P00519, T315I); details: read-out: % Cont @ 1 uM
T29 construct: purchased DiscoverX
Procedure, shortened: as §1

YES = biological target: T30, YES (Homo sapiens, UniProt P07947); details: read-out: % Cont @ 1 uM
T30 construct: purchased DiscoverX scanMAX Kinase panel
T30 sequence (P07947 whole entry): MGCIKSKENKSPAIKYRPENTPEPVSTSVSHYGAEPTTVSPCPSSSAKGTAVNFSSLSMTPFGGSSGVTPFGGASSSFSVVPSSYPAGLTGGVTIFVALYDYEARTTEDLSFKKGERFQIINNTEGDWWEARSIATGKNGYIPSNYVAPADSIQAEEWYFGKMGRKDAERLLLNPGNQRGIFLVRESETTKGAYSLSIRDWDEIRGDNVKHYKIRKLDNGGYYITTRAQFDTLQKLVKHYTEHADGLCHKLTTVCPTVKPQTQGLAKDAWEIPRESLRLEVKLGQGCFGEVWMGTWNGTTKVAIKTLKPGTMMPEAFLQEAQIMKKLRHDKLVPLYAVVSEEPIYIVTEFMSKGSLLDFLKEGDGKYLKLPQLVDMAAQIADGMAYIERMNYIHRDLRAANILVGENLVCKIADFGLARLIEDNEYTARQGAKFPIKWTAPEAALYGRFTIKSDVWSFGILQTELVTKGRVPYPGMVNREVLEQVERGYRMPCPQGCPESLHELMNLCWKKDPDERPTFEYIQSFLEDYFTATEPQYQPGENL
Procedure, shortened: as §1

BRK = biological target: T31, BRK (Homo sapiens, UniProt Q13882); details: read-out: % Cont @ 1 uM
T31 construct: purchased DiscoverX scanMAX Kinase panel
T31 sequence (Q13882 whole entry): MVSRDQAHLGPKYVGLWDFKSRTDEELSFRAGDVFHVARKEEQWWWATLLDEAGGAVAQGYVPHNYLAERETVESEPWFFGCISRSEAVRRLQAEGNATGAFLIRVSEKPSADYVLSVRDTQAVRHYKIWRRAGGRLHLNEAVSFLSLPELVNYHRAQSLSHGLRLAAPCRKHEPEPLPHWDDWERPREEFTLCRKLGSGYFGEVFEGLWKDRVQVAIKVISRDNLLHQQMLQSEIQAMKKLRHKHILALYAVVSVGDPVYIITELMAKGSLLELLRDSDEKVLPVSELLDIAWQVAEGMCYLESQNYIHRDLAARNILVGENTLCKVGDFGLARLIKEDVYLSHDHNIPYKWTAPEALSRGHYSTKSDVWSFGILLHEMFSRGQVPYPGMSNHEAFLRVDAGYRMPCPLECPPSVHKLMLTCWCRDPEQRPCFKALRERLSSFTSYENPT
Procedure, shortened: as §1

[6] = biological target: T32, ABL1(T315I)-nonphosphorylated (Homo sapiens, UniProt P00519, T315I); details: read-out: % Cont @ 1 uM
T32 construct: purchased DiscoverX
Procedure, shortened: as §1

AXL = biological target: T33, AXL (Homo sapiens, UniProt P30530); details: read-out: % Cont @ 1 uM
T33 construct: purchased DiscoverX scanMAX Kinase panel
Procedure, shortened: as §1

[7] = biological target: T34, ABL1(E255K)-phosphorylated (Homo sapiens, UniProt P00519, E255K); details: read-out: % Cont @ 1 uM
T34 construct: purchased DiscoverX
Procedure, shortened: as §1

BMX = biological target: T35, BMX (Homo sapiens, UniProt P51813); details: read-out: % Cont @ 1 uM
T35 construct: purchased DiscoverX scanMAX Kinase panel
Procedure, shortened: as §1

TAOK1 = biological target: T36, TAOK1 (Homo sapiens, UniProt Q7L7X3); details: read-out: % Cont @ 1 uM
T36 construct: purchased DiscoverX scanMAX Kinase panel
Procedure, shortened: as §1

KIT(A829P) = biological target: T37, KIT(A829P) (Homo sapiens, UniProt P10721, A829P); details: read-out: % Cont @ 1 uM
T37 construct: purchased DiscoverX scanMAX Kinase panel
Procedure, shortened: as §1

CDK7 = biological target: T38, CDK7 (Homo sapiens, UniProt P50613); details: read-out: % Cont @ 1 uM
T38 construct: purchased DiscoverX scanMAX Kinase panel
T38 sequence (P50613 whole entry): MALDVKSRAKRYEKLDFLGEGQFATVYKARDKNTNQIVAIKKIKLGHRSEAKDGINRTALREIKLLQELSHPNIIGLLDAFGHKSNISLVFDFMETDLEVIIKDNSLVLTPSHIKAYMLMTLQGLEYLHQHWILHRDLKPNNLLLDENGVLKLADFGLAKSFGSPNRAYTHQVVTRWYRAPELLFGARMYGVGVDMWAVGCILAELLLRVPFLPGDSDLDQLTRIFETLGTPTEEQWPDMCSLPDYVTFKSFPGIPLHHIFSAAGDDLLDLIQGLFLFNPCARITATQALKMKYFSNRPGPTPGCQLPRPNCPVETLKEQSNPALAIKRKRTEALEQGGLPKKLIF
Procedure, shortened: as §1

T1 sequence (P51451 whole entry): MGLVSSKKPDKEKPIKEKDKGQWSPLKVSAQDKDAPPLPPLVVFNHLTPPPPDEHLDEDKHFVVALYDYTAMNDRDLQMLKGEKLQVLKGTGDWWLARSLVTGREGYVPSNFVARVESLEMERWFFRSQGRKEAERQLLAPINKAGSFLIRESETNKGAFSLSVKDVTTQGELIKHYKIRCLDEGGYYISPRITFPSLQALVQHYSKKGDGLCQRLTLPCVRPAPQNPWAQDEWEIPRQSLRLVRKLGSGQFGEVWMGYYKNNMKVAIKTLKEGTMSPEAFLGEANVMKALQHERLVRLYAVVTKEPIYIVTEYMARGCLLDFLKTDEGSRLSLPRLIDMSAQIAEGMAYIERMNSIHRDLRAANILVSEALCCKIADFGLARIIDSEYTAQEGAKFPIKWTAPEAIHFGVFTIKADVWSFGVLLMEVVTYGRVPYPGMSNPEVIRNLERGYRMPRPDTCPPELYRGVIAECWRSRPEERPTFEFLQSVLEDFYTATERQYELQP

SMILES	remaining binding at 1 µM (BLK) [%]	percent of control binding at 1 µM (IKK-beta) [%]	remaining binding at 1 µM (KIT(V559D, T670I)) [%]	remaining binding at 1 µM (CSF1R) [%]	remaining binding at 1 µM (NEK1) [%]	remaining binding at 1 µM (MKNK1) [%]	remaining binding at 1 µM (TNIK) [%]	remaining binding at 1 µM [1] [%]	remaining binding at 1 µM [2] [%]	remaining binding at 1 µM (NEK4) [%]	remaining binding at 1 µM [3] [%]	remaining binding at 1 µM (MAP3K2) [%]	remaining binding at 1 µM (TAOK2) [%]	remaining binding at 1 µM (BRAF(V600E)) [%]	remaining binding at 1 µM (TXK) [%]	remaining binding at 1 µM (FLT3(R834Q)) [%]	% Cont @ 1 uM (p38-alpha) [%]	remaining binding at 1 µM (ABL2) [%]	remaining binding at 1 µM (EPHB1) [%]	remaining binding at 1 µM (KIT(V559D, V654A)) [%]	other results
Cc1cn(-c2cc(NC(=O)c3cc(C#Cc4cnc5c(Nc6cnn(C)c6)cccn45)c(C)cc3F)cc(C(F)(F)F)c2)cn1 [Example 4, 2-fluoro-4-methyl-N-(3-(4-methyl-1H-imidazol-1-yl)-5-(trifluoromethyl)phenyl)-5-((8-((1-methyl-1H-pyrazol-4-yl)amino)imidazo[1,2-a]pyridin-3-yl)ethynyl)benzamide]	0.4	56	12	2.5	100	78	25	4.1	22	90	10	87	35	48	11	34	49	2.9	26	12	remaining binding at 1 µM (FLT3(D835Y)): 22%; remaining binding at 1 µM (ZAK): 8.1%; remaining binding at 1 µM (MUSK): 46%; % Cont @ 1 uM (EGFR(E746-A750del)): 56%; remaining binding at 1 µM (MAP3K3): 82%; remaining binding at 1 µM (AURKC): 39%; % Cont @ 1 uM (EPHB2): 32%; remaining binding at 1 µM [4]: 5.9%; remaining binding at 1 µM [5]: 16%; remaining binding at 1 µM (YES): 10%; remaining binding at 1 µM (BRK): 78%; remaining binding at 1 µM [6]: 10%; remaining binding at 1 µM (AXL): 1.4%; remaining binding at 1 µM [7]: 12%; remaining binding at 1 µM (BMX): 3.6%; remaining binding at 1 µM (TAOK1): 96%; percent of control binding at 1 µM (KIT(A829P)): 2%; remaining binding at 1 µM (CDK7): 71%
Cc1cn(-c2cc(NC(=O)c3cc(C#Cc4cnc5c(Nc6cnn(C)c6)cccn45)c(C)cc3F)cc(C(C)(C)C#N)c2)cn1 [Example 1, N-(3-(2-cyanopropane-2-yl)-5-(4-methyl-1H-imidazol-1-yl)phenyl)-2-fluoro-4-methyl-5-((8-((1-methyl-1H-pyrazol-4-yl)amino)imidazo[1,2-a]pyridin-3-yl)ethynyl)benzamide]	0.05	26	1.2	0.2	34	23	7.2	15	9.2	28	2.7	34	20	15	1.6	0.9	0.65	0.4	17	2.9	remaining binding at 1 µM (FLT3(D835Y)): 14%; remaining binding at 1 µM (ZAK): 1.5%; remaining binding at 1 µM (MUSK): 5%; % Cont @ 1 uM (EGFR(E746-A750del)): 0%; remaining binding at 1 µM (MAP3K3): 19%; remaining binding at 1 µM (AURKC): 27%; % Cont @ 1 uM (EPHB2): 6.3%; remaining binding at 1 µM [4]: 0.15%; remaining binding at 1 µM [5]: 2.3%; remaining binding at 1 µM (YES): 2.5%; remaining binding at 1 µM (BRK): 13%; remaining binding at 1 µM [6]: 8.9%; remaining binding at 1 µM (AXL): 14.4%; remaining binding at 1 µM [7]: 0.9%; remaining binding at 1 µM (BMX): 6.7%; remaining binding at 1 µM (TAOK1): 11%; percent of control binding at 1 µM (KIT(A829P)): 1.1%; remaining binding at 1 µM (CDK7): 4.7%

From US12673945B2, “3-((8-((1H-pyrazol-4-yl)amino)imidazo[1,2-a]pyridin-3-yl)ethinyl)-n-phenylbenzamide derivative, method for preparing same, and pharmaceutical composition containing same as active ingredient for prevention or treatment of cancer” (DAEGU-GYEONGBUK MEDICAL INNOVATION FOUNDATION, priority 2020, dated 2026)
